In patent US9334285B2, “Aldosterone synthase inhibitors” (Boehringer Ingelheim International GmbH, priority 2014, dated 2016):
Like-named read-outs stand apart in the source and are kept apart here.

Key:
[1] = molecular target: T1, aldosterone synthase (CYP11B2) (Macaca fascicularis, UniProt A0A2K5UPL9); assay: Inhibition of aldosterone synthase, cynomolgus adrenal mitochondria, aldosterone quantified by mass spectrometry; type: biochemical, cynomolgus monkey; settings: 2 μM corticosterone, 90 minutes at 37° C.
T1 construct: employ cynomolgus adrenal gland mitochondria as the source of aldosterone synthase (CYP11B2); from tissue; host or cells: cynomolgus monkey adrenal gland mitochondria
T1 sequence (A0A2K5UPL9 1-503): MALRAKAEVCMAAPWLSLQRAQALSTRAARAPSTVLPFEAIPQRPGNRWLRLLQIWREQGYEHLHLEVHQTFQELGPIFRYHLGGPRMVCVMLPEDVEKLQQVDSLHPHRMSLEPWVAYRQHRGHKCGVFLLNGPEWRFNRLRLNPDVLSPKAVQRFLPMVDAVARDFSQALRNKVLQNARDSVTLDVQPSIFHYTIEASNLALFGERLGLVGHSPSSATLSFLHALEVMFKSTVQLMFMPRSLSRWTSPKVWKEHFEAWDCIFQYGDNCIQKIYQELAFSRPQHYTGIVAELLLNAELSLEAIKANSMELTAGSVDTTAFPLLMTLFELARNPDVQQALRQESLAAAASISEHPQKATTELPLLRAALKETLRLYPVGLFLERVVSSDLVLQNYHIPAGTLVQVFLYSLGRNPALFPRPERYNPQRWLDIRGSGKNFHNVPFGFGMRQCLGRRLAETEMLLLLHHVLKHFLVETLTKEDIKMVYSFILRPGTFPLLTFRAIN
Method: The aldosterone synthase and cortisol synthase inhibition assays employ cynomolgus adrenal gland mitochondria as the source of aldosterone synthase (CYP11B2) and cortisol synthase (CYP11B1). […] One unit of CYP11B2 and CYP11B1 activity in these preparations is defined as the amount of enzyme that generates 1 pmol of product in one hour under the conditions described.
The compounds of the invention may be evaluated for aldosterone synthase inhibition by the following assay:
Assays are performed in 96-well format in a final volume of 60 microL/well, containing 100 mM potassium phosphate, pH 7.4, 1% (v/v) DMSO, and additionally, 2 μM of corticosterone and 50 units of CYP11B2 activity. Reactions are started by the addition of NADPH to 1 mM and allowed to proceed for 90 minutes at 37° C. Reactions are terminated by the addition of 60 μL of MeCN containing an internal standard for mass spectrometry. One hundred microliters are then transferred to a glass filter plate and centrifuged at 570×g for 5 minutes and the filtrate is collected. Reaction product aldosterone is quantified by mass spectrometry. To determine the assay blank value (0% activity), NADPH is omitted from some reactions.
Dose dependent inhibition is quantified by the inclusion of compound at various concentrations. Maximum activity (100%) is defined by reactions containing NADPH, but without compound.

[2] = molecular target: cortisol synthase (CYP11B1) (Macaca fascicularis, UniProt A0A2K5ULY1); assay: Inhibition of cortisol synthesis, cynomolgus adrenal mitochondria, 11-deoxycortisol as substrate; type: biochemical, cynomolgus monkey; settings: 150 units of CYP11B1, 11-deoxycortisol as substrate
Method: The aldosterone synthase and cortisol synthase inhibition assays employ cynomolgus adrenal gland mitochondria as the source of aldosterone synthase (CYP11B2) and cortisol synthase (CYP11B1). Mitochondria are prepared from frozen cynomolgus monkey adrenal glands according to Method A described in by J. D. McGarry et al. (Biochem. J., 1983, 214, 21-28), with a final resuspension in the AT buffer described in R. Yamaguchi et al. (Cell Death and Differentiation, 2007, 14, 616-624), frozen as aliquots in liquid nitrogen and stored at −80° C. until use. One unit of CYP11B2 and CYP11B1 activity in these preparations is defined as the amount of enzyme that generates 1 pmol of product in one hour under the conditions described.
Assays are performed as for aldosterone synthase except for the use of 150 units of CYP11B1, 11-deoxycortisol as substrate and cortisol measured as product.

[3] = cynomolgus adrenal mitochondria, read-out: Cortisol Inhibition IC50
[4] = Cortisol Inhibition IC50, cynomolgus adrenal mitochondria

IC50 [1] | IC50 [2, 3] | SMILES | IC50 [2, 4]
130 nM | 13 µM | CC1(C)Cc2ncn(-c3ccc(F)cc3)c2C(=O)O1 [Compound 14, 3-(4-fluorophenyl)-6,6-dimethyl-3H,4H,6H,7H-pyrano[3,4-d]imidazol-4-one] | 
160 nM | > 30 µM | CN1C(=O)CCc2cc(-n3cnc4c3C(=O)OC(C)(CO)C4)ccc21 (single isomer, unassigned) [Compound 40A, 6-[6-(hydroxymethyl)-6-methyl-4-oxo-3H,4H,6H,7H-pyrano[3,4-d]imidazol-3-yl]-1-methyl-1,2,3,4-tetrahydroquinolin-2-one] | 
540 nM | > 100 µM | O=C1OC(CO)Cc2ncn(-c3ccc(Cl)cc3)c21 (centres unmarked) [Compound 36, 3-(4-chlorophenyl)-6-(hydroxymethyl)-3H,4H,6H,7H-pyrano[3,4-d]imidazol-4-one] | 
620 nM | > 30 µM | CC1(CO)Cc2ncn(-c3cccc(Cl)c3F)c2C(=O)O1 (single isomer, unassigned) [Compound 35B, 3-(3-chloro-2-fluorophenyl)-6-(hydroxymethyl)-6-methyl-3H,4H,6H,7H-pyrano[3,4-d]imidazol-4-one] | 
420 nM | 82 µM | N#Cc1ccc(-n2cnc3c2C(=O)OCC3)cc1 [Compound 21, 4-{4-oxo-3H,4H,6H,7H-pyrano[3,4-d]imidazol-3-yl}benzonitrile] | 
220 nM | > 30 µM | CC1(CO)Cc2ncn(C3Cc4ccccc4C3)c2C(=O)O1 (centres unmarked) [Compound 27, 3-(2,3-dihydro-1H-inden-2-yl)-6-(hydroxymethyl)-6-methyl-3H,4H,6H,7H-pyrano[3,4-d]imidazol-4-one] | 
870 nM | > 30 µM | CC1(CO)Cc2ncn(-c3cccc(F)c3Cl)c2C(=O)O1 (single isomer, unassigned) [Compound 34A, 3-(2-chloro-3-fluorophenyl)-6-(hydroxymethyl)-6-methyl-3H,4H,6H,7H-pyrano[3,4-d]imidazol-4-one] | 
55 nM | 2.3 µM | CC(C)(C)OC(=O)NCC1(C)Cc2ncn(-c3ccc(F)c(F)c3)c2C(=O)O1 (centres unmarked) [Compound 1, tert-butyl N{[3-(3,4-difluorophenyl)-6-methyl-4-oxo-3H,4H,6H,7H-pyrano[3,4-d]imidazol-6-yl]methyl}carbamate] | 
210 nM | > 30 µM | CC1(CO)Cc2ncn(-c3ccc4c(c3)CCO4)c2C(=O)O1 (single isomer, unassigned) [Compound 42A, 3-(2,3-Dihydro-benzofuran-5-yl)-6-hydroxymethyl-6-methyl-6,7-dihydro-3H-pyrano[3,4-d]imidazol-4-one] | 
290 nM | 24 µM | CC1(C)Cc2ncn(-c3ccc(Cl)c(C#N)c3)c2C(=O)O1 [Compound 12, 2-chloro-5-{6,6-dimethyl-4-oxo-3H,4H,6H,7H-pyrano[3,4-d]imidazol-3-yl}benzonitrile] | 
390 nM | 61 µM | CC1(C)Cc2ncn(-c3ccccc3)c2C(=O)O1 [Compound 17, 6,6-dimethyl-3-phenyl-3H,4H,6H,7H-pyrano[3,4-d]imidazol-4-one] | 
120 nM | 19 µM | CC1(CO)Cc2ncn(-c3ccc(Cl)cc3)c2C(=O)O1 (single isomer, unassigned) [Compound 38A, 3-(4-chlorophenyl)-6-(hydroxymethyl)-6-methyl-3H,4H,6H,7H-pyrano[3,4-d]imidazol-4-one] | 
14 nM | 10 µM | O=C1OCCc2ncn(-c3ccc(Cl)c(Cl)c3)c21 [Compound 23, 3-(3,4-dichlorophenyl)-3H,4H,6H,7H-pyrano[3,4-d]imidazol-4-one] | 
8.4 nM | 1.2 µM | CC1(C)Cc2ncn(-c3ccc(Cl)c(Cl)c3)c2C(=O)O1 [Compound 4, 3-(3,4-dichlorophenyl)-6,6-dimethyl-3H,4H,6H,7H-pyrano[3,4-d]imidazol-4-one] | 
50 nM | 6.8 µM | CC1(C)Cc2ncn(-c3cccc(F)c3Cl)c2C(=O)O1 [Compound 7, 3-(2-chloro-3-fluorophenyl)-6,6-dimethyl-3H,4H,6H,7H-pyrano[3,4-d]imidazol-4-one] | 
460 nM | > 30 µM | CN1C(=O)CCc2cc(-n3cnc4c3C(=O)OC(C)(CO)C4)ccc21 (single isomer, unassigned) [Compound 40B, 6-[6-(hydroxymethyl)-6-methyl-4-oxo-3H,4H,6H,7H-pyrano[3,4-d]imidazol-3-yl]-1-methyl-1,2,3,4-tetrahydroquinolin-2-one] | 
470 nM | 65 µM | O=C1OCCc2ncn(-c3ccc(Cl)cc3)c21 [Compound 20, 3-(4-chlorophenyl)-3H,4H,6H,7H-pyrano[3,4-d]imidazol-4-one] | 
440 nM | 20 µM | O=C1OCCc2ncn(-c3ccc(F)c(F)c3)c21 [Compound 24, 3-(3,4-difluorophenyl)-3H,4H,6H,7H-pyrano[3,4-d]imidazol-4-one] | 
210 nM | 34 µM | CC1(CO)Cc2ncn(-c3ccc(C#N)cc3)c2C(=O)O1 (centres unmarked) [Compound 37, 4-[6-(hydroxymethyl)-6-methyl-4-oxo-3H,4H,6H,7H-pyrano[3,4-d]imidazol-3-yl]benzonitrile] | 
390 nM | 36 µM | CC1(CO)Cc2ncn(-c3ccc(Cl)cc3)c2C(=O)O1 (single isomer, unassigned) [Compound 38B, 3-(4-chlorophenyl)-6-(hydroxymethyl)-6-methyl-3H,4H,6H,7H-pyrano[3,4-d]imidazol-4-one] | 
64 nM | 25 µM | CC1(C)Cc2ncn(C3Cc4ccccc4C3)c2C(=O)O1 [Compound 26] | 

SMILES | IC50 [1] | IC50 [2, 3] | IC50 [2, 4]
CC1Cc2ncn(-c3ccc(C#N)c(Cl)c3)c2C(=O)O1 (single isomer, unassigned) [Compound 15A, 2-chloro-4-[6-methyl-4-oxo-3H,4H,6H,7H-pyrano[3,4-d]imidazol-3-yl]benzonitrile] | 7.5 nM |  | 3.4 µM
N#Cc1ccc(-n2cnc3c2C(=O)OCC3)cc1Cl [Compound 22, 2-chloro-4-{4-oxo-3H,4H,6H,7H-pyrano[3,4-d]imidazol-3-yl}benzonitrile] | 25 nM |  | 18 µM
CC(=O)OCC1(C)Cc2ncn(-c3ccc(C#N)c(Cl)c3)c2C(=O)O1 (centres unmarked) [Compound 32, [3-(3-chloro-4-cyanophenyl)-6-methyl-4-oxo-3H,4H,6H,7H-pyrano[3,4-d]imidazol-6-yl]methyl acetate] | 36 nM |  | 6.5 µM
CN(C)C(=O)C1(C)Cc2ncn(-c3ccc(C#N)c(Cl)c3)c2C(=O)O1 (centres unmarked) [Compound 46, 3-(3-chloro-4-cyano-phenyl)-6-methyl-4-oxo-3,4,6,7-tetrahydro-pyrano[3,4-d]imidazole-6-carboxylic acid dimethylamide] | 89 nM |  | 13 µM
COC(=O)C1(C)Cc2ncn(-c3ccc(C#N)c(Cl)c3)c2C(=O)O1 (centres unmarked) [Compound 45, 3-(3-Chloro-4-cyano-phenyl)-6-methyl-4-oxo-3,4,6,7-tetrahydro-pyrano[3,4-d]imidazole-6-carboxylic acid methyl ester] | 28 nM |  | 1.1 µM
CC1Cc2ncn(-c3ccc(C#N)c(Cl)c3)c2C(=O)O1 (single isomer, unassigned) [Compound 15B, 2-chloro-4-[6-methyl-4-oxo-3H,4H,6H,7H-pyrano[3,4-d]imidazol-3-yl]benzonitrile] | 12 nM |  | 6.4 µM
O=C1OCCc2ncn(C3Cc4ccccc4C3)c21 [Compound 25, 3-(2,3-dihydro-1H-inden-2-yl)-3H,4H,6H,7H-pyrano[3,4-d]imidazol-4-one] | 500 nM |  | > 30 µM
